Source: patent publication US20150336977A1 (B.G. NEGEV TECHNOLOGIES AND APPLICATIONS LTD., priority 2013, published 2015)
Like-named read-outs stand apart in the source and are kept apart here.

Tested on: MCF-7 cells
Assay: MTT proliferation assay in estrogen-dependent MCF-7 breast cancer cells
Type: cell-based
Settings: for estrogenic activity relative to natural compound 1: comparison with coumestrol (compound 1)
Method: MCF-7 cells and MDA-MB-231 cells were maintained in Costar T75 flasks with Dulbeccos Modified Eagle Medium (DMEM) supplemented with 2 mM glutamine and 10% fetal bovine serum (Biological Industries Beit Haemek, LTD).
To deplete cells of estrogens, they were passaged for 1 week in phenol red-free DMEM supplemented with 10% estrogen-depleted calf serum (DCS/MEM) which was made by sequential treatment of calf serum with sulfatase and dextran-coated charcoal (Biological Industries Beit Haemek, LTD).
MCF-7 and MDA-MB-231 cells were plated in 96 well dishes (Costar) at approximately 5,000 cells/well and 2500 cells/well respectively in 100 ul medium. One day after plating (Day 0) 100 μl of the treatment media were added.
Final volume in each well was 200 μl. Each chemical was diluted to a final concentration of 10^−3M. At day 0 compounds 1 and 8b-8m (table 1) were diluted aside and 100 μl from each dilution were added to each well. The following dilution steps were performed: 2×10^−6M (4 μl of 10^−3M in 2 mL), 2×10^−7 M (200 μl of 2×10^−6M in 2 mL), 2×10^−8M (200 μl of 2×10^−7M in 2 mL) and 2×10^−9M (200 μl of 2×10^−8M in 2 mL).
Cell proliferation was quantified by colorimetric MTT assay. The use and validity of the MTT assay in MCF-7 cells is described by Martikainen et al.
Measurement of cell viability and proliferation were based on the reduction of tetrazolium salts using the MTT kit (Biological Industries Beit Haemek, LTD) according to the manufacturer instructions. The yellow tetrazolium MTT (3-(4,5-dimethylthiazolyl-2)-2,5-diphenyltetrazolium bromide) is reduced by metabolically active cells, in part by the action of dehydrogenase enzymes, to generate reducing equivalents such as NADH and NADPH. The resulting intracellular purple formazan can be solubilized and quantified by spectrophotometric means. The MTT Reagent yields low background absorbance values in the absence of cells. MTT assay was used to evaluate cell number in each well.

[1] = Homo sapiens, MCF7, MCF-7 breast cancer cells, read-out: IC50 value
[2] = Homo sapiens, MCF7, cell proliferation effect on MCF-7 cell line (estrogen dependent cells), MTT, NA = Not Active, read-out: IC50

Compound | IC50 [1] | IC50 [2] | estrogenic activity relative to natural compound 1 | other results
O=c1oc2cc(O)ccc2c2oc3ccc4ccccc4c3c12 [Compound 8m, napthocoumestrol] | 180 nM | 180 nM | – | –
O=c1oc2cc(O)ccc2c2oc3ccc(C(F)(F)F)cc3c12 [Compound 8l, 3-trifluoromethylcoumestrol] | 170 nM | 170 nM | – | –
O=c1oc2cc(O)ccc2c2oc3ccc(O)cc3c12 [Compound 8f] | – | – | at least one order of magnitude less active | –
O=c1oc2cc(O)ccc2c2oc3cc(O)ccc3c12 [Compound 1, coumestrol] | – | – | – | IC50 (cell proliferation effect on MCF-7 cell line (estrogen dependent cells), MTT, NA = Not Active, read-out: IC50): 73 nM
O=c1oc2ccccc2c2oc3ccccc3c12 [Compound 8b] | – | – | at least one order of magnitude less active | –
O=c1oc2ccccc2c2oc3cc(O)ccc3c12 [Compound 8d, 3-hydroxycoumestn] | – | 568 nM | at least one order of magnitude less active | proliferative effect on the MCF-7 cells (ER-positive breast cancer line MCF-7, result in words): did not showed any proliferative effect
O=c1oc2cc(O)ccc2c2oc3ccc(F)cc3c12 [Compound 8j] | – | 220 nM | – | –
CC(=O)Nc1ccc2c(c1)oc1c3ccc(O)cc3oc(=O)c21 [Compound 8g] | 30 nM | 30 nM | – | –
O=c1oc2cc(O)ccc2c2oc3cc(O)c(O)cc3c12 [Compound 8c, 8-hydroxycoumestrol] | – | – | at least one order of magnitude less active | –
CC(=O)Nc1ccc2oc3c4ccc(O)cc4oc(=O)c3c2c1 [Compound 8h, 8-acetamidecoumestrol] | < 1 nM | 9 nM | – | –
O=c1oc2cc(O)ccc2c2oc3ccc(Br)cc3c12 [Compound 8i] | 107 nM | 107 nM | – | –
CCOC(=O)c1ccc2oc3c4ccc(O)cc4oc(=O)c3c2c1 [Compound 8k] | 58 nM | 58 nM | – | –
